Reference: patent publication US11090391B2, “Protein nanocages with enhanced mucus penetration for targeted tissue and intracellular delivery” (The Johns Hopkins University, priority 2016, dated 2021)
Where “and” joins values, the source holds several entries; their conditions need not be identical. Equal entries are not always repeated.

Experiments:
3LL subcutaneous tumor = test: Tumor growth, 3LL subcutaneous tumor model, tail vein injection; assay type: in vivo; settings: day 10, injections at days 0, 2, 4, 6, 8
Method: […] was injected at the tail vein to assay the effect on tumor growth in a 3LL subcutaneous tumor model at several time points (0, 2, 4, 6, and 8 days post tumor development). At day 10 post tumor development, the tumor volume was reduced in the animals treated with AF, as well as in the animals treated with […] treatment.

Hif-1α = Hif-1α expression, western blotting in 3LL cells; assay type: cell-based, mouse; settings: 0.625 to 2.5 μM AF, dose- and time-dependent
Method: The inhibition was dose-dependent, i.e., increasing the amount of AF in the free AF or that in […] from 0.625 μM to 1.25 μM, further to 2.5 μM, decreased the level of Hif-1α expression. The inhibition was also time-dependent, i.e., the inhibition was more prominent after a 6 hour-incubation than a 24 h-incubation, and even more prominent than a 48 h-incubation. Hif-1α, a marker for tumor hypoxia, is an indicator of cancer progression, metastasis, and drug resistance in clinic.

[1] = In vitro pH-sensitive DOX release, dialysis; assay type: physicochemical
Method: At designated times up to 6 days, 150 μL of solution outside the dialysis bag was collected and the same amount of fresh PBS was added back. After 3 days of incubation, the buffer was adjusted to pH 5.0 to induce the release of DOX from PEG-FTn. The concentrations of released free DOX at varying time points were measured by HPLC.

[2] = system: 3LL-Luc orthotopic proximal lung cancer; test: In vivo anti-cancer efficacy, orthotopic proximal lung cancer model; set-up: species or system mouse
From the text: To evaluate the efficacy of PEG-FTn-DOX for treating lung airway cancer, an aggressive orthotopic mouse model was established of proximal lung cancer in inbred mice with intact host immunity. The model was established via intratracheal intubation of cancer cells into the tracheal and bronchial epithelium of lung airways (DuPage M, et al., Nature protocols, 4:1064-1072 (2009)), which was relevant to small cell lung cancer and squamous-cell lung cancer. Briefly, female C57BL/6 mice (6-8 weeks) were inoculated with 2.5×10^4 3 LL-Luc cells in 50 μL of DMEM medium via intratracheal intubation using a 22 G×1″ Safelet catheter (Exel International). Three days after the inoculation, bioluminescence signal in the lung was observed using a Xenogen IVIS Spectrum optical imaging system. […] The tumor growth was monitored at various time points using an IVIS imaging system and the bioluminescence signal in lung at different time points was quantitatively analyzed by the Living Image® (Caliper Life Sciences) software. The survival of mice was recorded daily, and data was analyzed by Kaplan-Meier survival curve.
The luciferase activity of 3LL-Luc was visualized and quantified by a Xenogen IVIS Spectrum optical imaging system. In brief, mice were anesthetized with 2% isoflurane in O2 and received intraperitoneal injection of D-luciferin solution in PBS at a dose of 150 mg/kg. Serial images were acquired between 5 and 20 minutes after the D-luciferin administration, and the bioluminescence signal intensity was quantified by the Living Image® software.

[3] = system: 3LL-based tumor spheroids; test: Penetration of DOX formulations in tumor spheroids; assay type: cell-based, mouse; settings: 10 μM DOX concentration
Method: (§1) Multicellular tumor spheroid models consisting of different cancer cell lines were prepared by modifying a previously reported protocol (Friedrich J, et al, Nature Protocols, 4:309-324 (2009)). Briefly, 50 μL DMEM medium containing 1.5% agarose (wt/vol) was plated onto each well of a 96-well microtiter plate under sterile conditions. After the agarose solidifies, the plates were stored at room temperature until use. For the penetration study, 5×10^3 cells were seeded onto the agarose-plated 96-well plates. After 4-5 days culture to obtain multicellular tumor spheroids (400-500 μm in diameter), the tumor spheroids were carefully transferred into glass bottom dishes. […] After the 2-hour incubation, the cells were observed using confocal microscopy with Z-stack imaging at ˜10 μm intervals. […] The 3D images of spheroids were reconstructed by ZEN microscopy software (Carl Zeiss). For analyzing the penetration distance, the radial intensity distribution profile was determined using a custom-made MATLAB code where αtumor is the radius of individual spheroids and r is the radial distance from the spheroid center (r/αtumor=0 and 1 indicate the center and edge of the tumor spheroid, respectively). […] Quantification analysis of signal intensity was performed with ImageJ software (NIH).
(§2) Multicellular tumor spheroids were prepared and post-treatment analyzed as described in Example 4.

3LL tumor spheroids = test: Growth delay of 3D cell spheroids; assay type: cell-based, mouse; settings: 10 μM DOX, up to 11 days
Method: For cytotoxicity and growth delay experiments of 3D cell spheroids, 5×10^3 cells were seeded into the 96-well plates containing agarose. […] The diameters of tumor spheroids were recorded with a Zeiss Axiovert 200 phase-contrast microscope (Carl Zeiss) at the indicated time points.

[4] = Physicochemical properties (hydrodynamic diameter, ζ-potential, drug loading)
Method: The DOX conjugated PEG-FTn is denoted as FTn/FTn-PEG2k/DOX. […] The mixture was incubated for 1 hour and 1.5 mg EDC was added to activate a carboxyl group of each DOX-linker conjugate. The resultant compounds were analyzed using high-performance liquid chromatography (HPLC, Varian Inc.) equipped with a C18 reverse phase column. […] The final product was extensively dialyzed (10 kDa MWCO; Thermo Scientific) and purified with a PD-10 column.

H460-based spheroids = test: Penetration of DOX formulations in tumor spheroids; assay type: cell-based, human
Method: as §1, §2

A549-based spheroids = test: Penetration of DOX formulations in tumor spheroids; assay type: cell-based, human
Method: as §1, §2

H1975-based spheroids = test: Penetration of DOX formulations in tumor spheroids; assay type: cell-based, human
Method: as §1, §2

3LL cells = test: Intracellular trafficking, confocal microscopy; assay type: cell-based, mouse
[5] = single intratracheal dose 0.25 mg/kg, 11 days after treatment

Substance | tumor volume (3LL subcutaneous tumor) | Hif-1α expression (Hif-1α) | maximum release of DOX ([1]; pH 5.0, after 4 hours) [%] | DOX released ([1]; pH 7.4, over 3 days, 37° C.) | progression-free survival ([2]; after 60 days) [%] | decrease in bioluminescence signal intensity compared to free DOX-treated mice [2, 5] [fold] | decrease in bioluminescence signal intensity compared to untreated mice [2, 5] [fold] | distribution in spheroids (3D confocal images) [3] | mean fluorescence signal intensity in the entire spheroid vs free DOX [3] | delay of spheroid growth compared to free DOX (3LL tumor spheroids) | DOX molecules per PEG-FTn [4] | Hydrodynamic diameter [4] [nm] | ζ-potential [4] [mV] | penetration compared to free DOX (H460-based spheroids) | penetration compared to free DOX (A549-based spheroids) | penetration compared to free DOX (H1975-based spheroids) | DOX found in cytoplasm compared with nucleus (3LL cells; 30 min after addition) [%] | DOX found in cytoplasm compared with nucleus (3LL cells; 2 h after addition) [%] | colocalization with lysosomes (3LL cells; 2 hours after addition) | intracellular localization of DOX (3LL cells; 2 hours after addition)
Acriflavine [AF] | reduced | inhibited Hif-1α expression | – | – | – | – | – | – | – | – | – | – | – | – | – | – | – | – | – | –
FTn/FTn-PEG2k/DOX: DOX conjugated to FTn/FTn-PEG2k via acid-sensitive cis-aconityl linker | – | – | ~80 | negligible | 60 | 17 | 40 | uniformly distributed throughout the entire tumor spheroid | significantly greater | superior ability of delaying the growth | 88±5 and 88 ± 22 | 15.3 ± 3.2 | −7.4 ± 2.8 | Improved penetration | Improved penetration | Improved penetration | ~95 | ~55 | colocalized with lysosomes | observed in both the cytoplasm and nucleus
